Values quoted from earlier work as cited in patent US11549142B2, “CETP inhibitors for therapeutic use” (Hoffmann-La Roche Inc., priority 2013, dated 2023).
Where two headings read alike, the source gives them in different places.

Columns and labels:
[1] = humans; de Grooth et al.; cited from earlier work
[2] = rabbits, Okamoto et al., cited from earlier work

Compound: CCC(CC)CC1(C(=O)Nc2ccccc2SC(=O)C(C)C)CCCCC1 [dalcetrapib, thioisobutyric acid S-(2-{[1-(2-ethyl-butyl)-cyclohexanecarbonyl]-amino}-phenyl) ester]
- LDL cholesterol [1]: decrease LDL cholesterol
- plasma HDL cholesterol [1]: increase plasma HDL cholesterol
- LDL cholesterol [2]: decrease LDL cholesterol
- plasma HDL cholesterol ([2]; Shinkai et al., Kobayashi et al.): increase plasma HDL cholesterol
